{"source": "paper PMC7984856", "about": "(European journal of medicinal chemistry, 2021)", "origin": "cited, not measured here", "tested_on": "catalepsy in rats", "settings": "previous in vivo behavioral studies, ref [29]", "data": [{"smiles": "Fc1ccc(CCCCN2CCN(c3ccccn3)CC2)cc1", "note": "[Compound 2, 1-(4-(4-fluorophenyl)butyl)-4-(pyridin-2-yl)piperazine]", "values": [{"measurement": "propensity to cause catalepsy", "value": "low propensity to cause catalepsy"}]}]}
